Patent US7192572B2, “Compound delivery systems” (Conopco, Inc., priority 2002, dated 2007)

Assay: cooling effect perceived on ingestion of the example compositions (microemulsion tea beverage, water ice, toothpaste)
Assay type: in vivo, human
Settings: ingestion in the form of the compositions of Examples 1-3, relative to the same amount of the cooling active alone

With `COc1ccccc1N1CC=C(c2cccc([N+](=O)[O-])c2)NC1=O` [1-(2′-methoxyphenyl)-4-(3″-nitrophenyl)-1,2,3,6-tetrahydropyrimidine-2-one] the cooling effect perceived was “prolonged the cooling effect perceived”.

In the case of `CC1CCC(C(C)C)C(O)C1` (centres unmarked) [menthol, 2-isopropyl-5-methyl-cyclohexanol], the cooling effect perceived is reported as “prolonged the cooling effect perceived”.
